Assay results published in patent publication US4935240A, “Benzoylaminophenoxybutanoic acid derivatives” (Ono Pharmaceutical Co., Ltd., priority 1987, dated 1990).

These molecules were tested against 5α-reductase (assay: 5α-reductase inhibitory activity in vitro). Conditions: rat prostate enzyme, [4-C14]testosterone + NADPH, 60 mins at 37° C.
Assay type: biochemical
Protocol: 5α-reductase inhibitory activity in vitro
Inhibitory activity on 5α-reductase in vitro was measured by the following test system.
The test was carried out by being referred to the method of J. Shimazaki et al [See Endocrinol, Japan., 18, 179 (1971)].
Male rats' prostate (4g) was homogenized with its 3-fold volume of 0.1 M HEPES buffer (pH 7.4) including 0.25 M cane sugar, and was centrifuged at 3000 r.p.m. for 10 mins.
The precipitate was suspended into the buffer solution described above (10 ml), and the suspension was centrifuged at 3000 r.p.m. for 5 mins. The resulting precipitated was suspended in the buffer solution (3 ml) described above and was used as a sauce of enzyme.
A reaction mixture (total volume 0.1 ml) of [4-c^14 ]testosterone (1.5n mol, 1.5×10^5 cpm), NADPH (0.5 μmol), enzyme solution (0.03 ml) described above and several kinds of concentration of the compounds in the present invention was incubated for 60 mins at 37° C. Enzyme reaction was quenched by addition of a mixture (0.4 ml) of chloroform and methanol (1:2), and the mixture was centrifuged at 2000 r.p.m. for 3 mins. The supernatant (50 μl) was spotted on silica gel thin layer plate. The spot on the plate was developed with a mixture of chloroform, methanol and acetic acid (99.2:0.6:0.2). Radioactivity of dihydrotestosterone generated on the plate was measured by TLC scanner of radio-autography and inhibitory ratio was calculated.

IC50 [nM]	SMILES
200	O=C(O)CCCOc1ccccc1NC(=O)c1ccc(OCc2ccccc2)cc1 [1(a), 4-[2-(4-benzyloxybenzoylamino)phenoxy]butanoic acid]
330	Cc1ccc(COc2ccc(C(=O)Nc3ccccc3OCCCC(=O)O)cc2)cc1 [1(b), 4-[2-[4-(4-methylphenylmethoxy)benzoylamino]phenoxy]butanoic acid]
320	CCc1ccc(COc2ccc(C(=O)Nc3ccccc3OCCCC(=O)O)cc2)cc1 [1(c), 4-[2-[4-(4-ethylphenylmethoxy)benzoylamino]phenoxy]butanoic acid]
130	CCCc1ccc(COc2ccc(C(=O)Nc3ccccc3OCCCC(=O)O)cc2)cc1 [1(d), 4-[2-[4-(4-propylphenylmethoxy)benzoylamino]phenoxy]butanoic acid]
220	CC(C)c1ccc(COc2ccc(C(=O)Nc3ccccc3OCCCC(=O)O)cc2)cc1 [1(e), 4-[2-[4-(4-isopropylphenylmethoxy)benzoylamino]phenoxy]butanoic acid]
200	O=C(O)CCCOc1ccccc1NC(=O)c1ccc(OCCCc2ccccc2)cc1 [1(f), 4-[2-[4-(3-phenylpropoxy)benzoylamino]phenoxy]butanoic acid]
570	Cc1cc(OCc2ccc(CC(C)C)cc2)ccc1C(=O)Nc1ccccc1OCCCC(=O)O [1(h), 4-[2-[4-(4-isobutyphenylmethoxy)-2-methylbenzoylamino]phenoxy]butanoic acid]
430	Cc1cc(C(=O)Nc2ccccc2OCCCC(=O)O)ccc1OCc1ccc(CC(C)C)cc1 [1(i), 4-[2-[4-(4-isobutyphenylmethoxy)-3-methylbenzoylamino]phenoxy]butanoic acid]
23	CCCc1ccc(CN(Cc2ccc(CCC)cc2)c2ccc(C(=O)Nc3ccccc3OCCCC(=O)O)cc2)cc1 [2(a), 4-[2-[4-[N, N-bis(4-propylbenzyl)amino]benzoylamino]phenoxy] butanoic acid]
25	Cc1cc(N(Cc2ccc(CC(C)C)cc2)Cc2ccc(CC(C)C)cc2)ccc1C(=O)Nc1ccccc1OCCCC(=O)O [2(b), 4-[2-[4-[N, N-bis(4-isobutylbenzyl)amino]-2-methylbenzoylamino]phenoxy]butanoic]
300	CCCCCN(CCCCC)c1ccc(C(=O)Nc2ccccc2OCCCC(=O)O)c(C)c1 [2(c), 4-[2-[4-[N, N-dipenthylamino)-2-methylbenzoylamino]phenoxy] butanoic acid]
25	CCCCCN(Cc1ccc(CCC)cc1)c1ccc(C(=O)Nc2ccccc2OCCCC(=O)O)c(C)c1 [2(d)]
44	CCCc1ccc(CN(C)c2ccc(C(=O)Nc3ccccc3OCCCC(=O)O)c(C)c2)cc1 [2(e), 4-[2-[4-[N-methyl-N-(4-propylbenzyl)amino]-2-methylbenzoylamino]phenoxy]butanoic]
170	Cc1cc(N(CCCCc2ccccc2)CCCCc2ccccc2)ccc1C(=O)Nc1ccccc1OCCCC(=O)O [2(f), 4-[2-[4-[N, N-bis(4-phenylbutyl)amino]-2-methylbenzoylamino]phenoxy]butanoic]
27	Cc1cc(N(Cc2ccc(C(C)C)cc2)Cc2ccc(C(C)C)cc2)ccc1C(=O)Nc1ccccc1OCCCC(=O)O [2(g), 4-[2-[4-[N, N-bis(4-isopropylbenzyl)amino]-2-methylbenzoylamino]phenoxy] butanoic]
140	Cc1cc(N(Cc2ccc(F)cc2F)Cc2ccc(F)cc2F)ccc1C(=O)Nc1ccccc1OCCCC(=O)O [2(h)]
150	CCCc1ccc(CN(C(=O)c2ccc(CCC)cc2)c2ccc(C(=O)Nc3ccccc3OCCCC(=O)O)c(C)c2)cc1 [2(i)]
26	Cc1cc(N(Cc2ccccc2C(F)(F)F)Cc2ccccc2C(F)(F)F)ccc1C(=O)Nc1ccccc1OCCCC(=O)O [2(j)]
580	Cc1cc(N(Cc2ccc(C(F)(F)F)cc2)Cc2ccc(C(F)(F)F)cc2)ccc1C(=O)Nc1ccccc1OCCCC(=O)O [2(k), 4-[2-[4-[N,N-bis-(4-trifluoromethylbenzyl)amino]-2-methylbenzoylamino]phenoxy] butanoic]

IC50 [nM]	SMILES
150	CC(C)Cc1ccc(CNc2ccc(C(=O)Nc3ccccc3OCCCC(=O)O)cc2)cc1 [2(l), 4-[2-[4-(4-isobutylbenzylamino)benzoylamino]phenoxy] butanoic acid]
120	Cc1cc(NCc2ccc(CC(C)C)cc2)ccc1C(=O)Nc1ccccc1OCCCC(=O)O [2(m), 4-[2-[4-(4-isobutylbenzylamino)-2-methylbenzoylamino]phenoxy] butanoic acid]
40	CCCc1ccc(CNc2ccc(C(=O)Nc3ccccc3OCCCC(=O)O)c(C)c2)cc1 [2(n), 4-[2-[4-(4-propylbenzylamino)-2-methylbenzoylamino]phenoxy] butanoic acid]
35	Cc1cc(NC(C)c2ccc(CC(C)C)cc2)ccc1C(=O)Nc1ccccc1OCCCC(=O)O (centres unmarked) [2(o), 4-[2-[4-[1-(4-isobutylphenyl)ethylamino]-2-methylbenzoylamino]pehnoxy]butanoic]
80	Cc1cc(NCc2ccc(C(C)C)cc2)ccc1C(=O)Nc1ccccc1OCCCC(=O)O [2(p), 4-[2-[4-(4-isopropylbenzylamino)-2-methylbenzoylamino]phenoxy] butanoic acid]
220	Cc1cc(NCc2ccccc2C(F)(F)F)ccc1C(=O)Nc1ccccc1OCCCC(=O)O [2(q), 4-[2-[4-(2-trifluoromethylbenzylamino)-2-methylbenzoylamino]phenoxy] butanoic]
2.5	CCCc1ccc(C(Nc2ccc(C(=O)Nc3ccccc3OCCCC(=O)O)c(C)c2)c2ccc(CCC)cc2)cc1 [2(r), 4-[2-[4-[bis(4-propylphenyl)methylamino]-2-methylbenzoylamino]phenoxy] butanoic]
11	CCCc1ccc(C(Nc2ccc(C(=O)Nc3ccccc3OCCCC(=O)O)cc2)c2ccc(CCC)cc2)cc1 [2(s), 4-[2-[4-[bis(4-propylphenyl)methylamino]benzoylamino]phenoxy] butanoic acid]
56	CCCc1ccc(CNc2ccc(C(=O)Nc3ccccc3SCCCC(=O)O)c(C)c2)cc1 [3(a), 4-[2-[4-(4-propylbenzylamino)-2-methylbenzoylamino]phenylthio] butanoic acid]
25	CCCc1ccc(CN(Cc2ccc(CCC)cc2)c2ccc(C(=O)Nc3ccccc3SCCCC(=O)O)c(C)c2)cc1 [3(b), 4-[2-[4-[N,N-bis(4-propylbenzyl)amino]-2-methylbenzoylamino]phenylthio]butanoic]
3	CCCc1ccc(C(Oc2ccc(C(=O)Nc3ccccc3OCCCC(=O)O)cc2)c2ccc(CCC)cc2)cc1 [4(a), 4-[2-[4-[bis(4-propylphenyl)methoxy]benzoylamino]phenoxy] butanoic acid]
6.5	CCCc1ccc(C(Oc2ccc(C(=O)Nc3ccccc3OCCCC(=O)O)c(C)c2)c2ccc(CCC)cc2)cc1 [4(b), 4-[2-[4-[bis(4-propylphenyl)methoxy]-2-methylbenzoylamino]phenoxy]butanoic]
230	O=C(O)CCCOc1ccccc1NC(=O)c1ccc(CNc2cccc3c2CCCC3)cc1 [6(b), 4-[2-[4-(5,6,7,8-tetrahydronaphthalene-1-yl)aminomethylbenzoylamino]phenoxy] butanoic]
140	CN(Cc1ccc(C(=O)Nc2ccccc2OCCCC(=O)O)cc1)c1cccc2c1CCCC2 [6(c), 4-[2-[4-[N-methyl-N-(5,6,7,8,- tetrahydronaphthalene-1-yl)aminomethyl]benzoylamino]phenoxy] butanoic acid]
> 20000	O=C(O)CCCOc1ccccc1NC(=O)c1ccc(OCCCCc2ccccc2)cc1 [Compared compound 2, reference compound]
80	CC(C)Cc1ccc(COc2ccc(C(=O)Nc3ccccc3OCCCC(=O)O)cc2)cc1 [Example 1, 4-[2-[4-(4-isobutylphenylmethoxy)benzoylamino]phenoxy]butanoicacid]
11	CCCc1ccc(CN(Cc2ccc(CCC)cc2)c2ccc(C(=O)Nc3ccccc3OCCCC(=O)O)c(C)c2)cc1 [Example 2, 4-[2-[2-methyl-4-[N,N-bis(4-propylbenzyl)amino]benzoylamino]phenoxy]butanoic acid]
65	CCCc1ccc(CN(Cc2ccc(CCC)cc2)c2ccc(C(=O)Nc3ccccc3[S+]([O-])CCCC(=O)O)c(C)c2)cc1 (centres unmarked) [Example 5, 4-[2-[4-[N,N-bis(4-propylbenzyl)amino]-2-methylbenzoylamino]phenylsulfinyl]butanoic acid]

SMILES	IC50 [nM]
O=C(O)CCCOc1ccccc1NC(=O)c1ccc(OCCCCc2ccccc2)cc1 [1(g), 4-[2-[4-(4-phenylbutoxy)benzoylamino]phenoxy]butanoic acid]	440
